Reference: patent US20160215348A1, “GENE EXPRESSION BIOMARKERS AND THEIR USE FOR DIAGNOSTIC AND PROGNOSTIC APPLICATION IN PATIENTS POTENTIALLY IN NEED OF HDAC INHIBITOR TREATMENT” (4SC AG, priority 2013, published 2016)

Tested on: ZFP64
Experiment: qPCR relative expression (vs cycle 1, day 1, hour 0) in patients' whole blood
Type: in vivo, human
Conditions: HCC patients; Sorafenib 400 mg added to Resminostat 600 mg
Experimental: 2.5 ml whole blood from patients was collected in PAXgene™ tubes (BD Biosciences) that contain chemicals to lyse the erythrocytes, stabilize RNA from degradation by RNases and minimize ex vivo changes in gene expression. The samples were incubated at 20° C. to 25° C. for 2 hours and then frozen at −20° C. until purification of total RNA.
Total RNA was isolated from the whole blood samples stabilized in PAXgene™ buffer using a spin column based technique suitable for whole blood samples (like PAXgene™ Blood miRNA Kit or PAXgene™ Blood RNA Kit from Qiagen) according to the manufacturer's instructions. The purification began with a centrifugation step to pellet nucleic acids in the (PAXgene™ Blood RNA) tube. The resuspended pellet was incubated in buffers, optimized for maintenance of RNA stability together with proteinase K to bring about protein digestion. An additional centrifugation through the PAXgene™ Shredder spin column was carried out to homogenize the cell lysate and remove residual cell debris, and the supernatant of the flow-through fraction was transferred to a fresh microcentrifuge tube. Ethanol was added to adjust binding conditions, and the lysate was applied to a PAXgene™ RNA spin column. During a brief centrifugation, RNA was selectively bound to the PAXgene™ silica membrane as contaminants pass through. Remaining contaminants were removed in several efficient wash steps. Between the first and second wash steps, the membrane was treated with DNase I, as described herein below in 1.3 to remove trace amounts of bound DNA. After the wash steps, RNA was eluted in nuclease free water and heat-denatured.
The High-Capacity cDNA Reverse Transcription Kit (Applied Biosystems) was used for reverse transcription of total RNA into single stranded cDNA with the aid of random hexamer primers according to the manufacturer's instructions. Briefly, for the reaction mix total RNA was mixed with random primers in excess, 4 mM dNTP Mix, 2.5 U/reaction, reverse transcriptase and nuclease free water. The reverse transcription took place in a thermal cycler under the following conditions: 25° C. for 10 min, 37° C. for 120 min, 85° C. for 5 min, followed by 4° C. for cooling down the reaction. The reverse transcription can be done in principle as well with other reverse transcriptases, primers and temperature protocols. Whenever possible, 250 ng total RNA were reverse transcribed if not available, lower amounts were used.
Custom TaqMan® Arrays (Applied Biosystems) in Format 16 were designed for the gene expression analysis of biomarkers of the present invention and housekeeping genes as outlined in table 4. These arrays allow for qPCR analysis of 8 samples per card. Of course, all reactions can be done as well by conventional qPCR analysis with specific primers.
The reaction mix was transferred into the reaction chambers by centrifuging twice for 1 minute each at 330 g and 4° C. After sealing, the microfluidic cards were run on an AB7900HT instrument (Applied Biosystems). The software SDS 2.4 (Applied Biosystems) was employed for instrument control, data acquisition and raw data analysis. The plates were run in Relative Quantification (ΔΔCt) mode, and the following temperature profile was used:
This analysis was carried out for each patient separately. The first sample (cycle 1, day 1, hour 0) was used as the reference sample. The ‘exprs’ value indicates relative expression levels (fold change values) for individual samples.
Table 5 contains the median expression level values for treatment day 5 (cycle 1, day 5, hours 0, 2, and 5) at a daily dose of 600 mg or 800 mg Resminostat mesylate salt is given below.

For `CNC(=O)c1cc(Oc2ccc(NC(=O)Nc3ccc(Cl)c(C(F)(F)F)c3)cc2)ccn1` [sorafenib, reference compound], the “Effect of additional administration on ZFP64 expression (FIG. 4b)” value was “does not affect”.
